Measurements: patent publication US20230181721A1 (priority 2020, published 2023)

Key:
HLA-A2.1 transgenic mice [1] = details: mouse, in vivo
HLA-A2.1 transgenic mice [2] = details: mouse, in vivo; remark: listed apart in the source
HLA-A2.1 transgenic mice [3] = details: mouse, in vivo; remark: listed apart in the source
human PBMC = format: cell-based

Substance	ELIspot (YES/NO) (HLA-A2.1 transgenic mice [1])	tetramer response (HLA-A2.1 transgenic mice [2])	Trm (response) (HLA-A2.1 transgenic mice [3])	Trm response (HLA-A2.1 transgenic mice [3])	Patient response (human PBMC)
ALSKGVHFV [3_wt]	Yes	medium	No	No	Yes
AVSKGVHFI [3_neoB]	Yes	medium		No	
CLEASFNYV [5_neoA]	No	medium	Yes	Yes	Yes
FLAGLIAIV [6_neoA]	Yes	high	Yes	Yes	Yes
FLLNKEMYL [8_wt]	Yes	medium	No	No	Yes
FMAGLIAIV [6_neoB]	Yes	medium		No	
FTAHIQWMV [7_neoB]	Yes	medium		No	
GLMWLSYFV [14_neoA]	Yes	medium	No	No	Yes
GLSRIGMEV [15_neoA]	No	high		No	
GTSRIGMEV [15_neoB]	No	high		No	
KLADYNYKV [19_neoA]	Yes	low			Yes
KLKDCVMYA [20_wt]	No	medium		Yes	
KLSYGIATE [22_neoB]	No	high		No	
LALLLLDRL [23_wt]	Yes	medium	Yes	Yes	Yes
LLLDRLNQV [25_neoA]	Yes	medium		No	
LLLPQGTTV [29_neoA]	No	medium	Yes	Yes	Yes
LLLTILTSV [26_neoA]	Yes	medium	Yes	Yes	Yes
LLSAGIFGV [27_neoA]	Yes	high	No	No	Yes
LLTGRLQSV [24_neoA]	Yes	high		No	
LLWLIINLV [28_neoA]	Yes	high	No	No	Yes
LVSAGIFGV [27_neoB]	Yes	high	Yes	Yes	Yes
MLAKALRKV [30_wt]	Yes	high	No	No	Yes
MMISAGFSL [31_wt]					Yes

Substance	ELIspot (YES/NO) (HLA-A2.1 transgenic mice [1])	tetramer response (HLA-A2.1 transgenic mice [2])	Trm (response) (HLA-A2.1 transgenic mice [3])	Trm response (HLA-A2.1 transgenic mice [3])	Patient response (human PBMC)
NLIDSYFVV [32_wt]	Yes	medium	Yes	Yes	Yes
NLLKDCPAV [33_wt]	Yes	medium		No	
NLNESLIDL [34_wt]	No	medium		No	
QLEMELTPV [36_wt]	No	medium	Yes	Yes	Yes
RLMTWLDMV [37_neoA]	Yes	high	No	No	Yes
RLNEVAKNV [38_neoA]	No	high		No	
RLNQLESKV [39_neoA]	No	medium		Yes	
RTMTWLDMI [37_neoB]	Yes	high	No	No	Yes
SAPGVFCGV [41_neoB]	Yes	high	No	No	YES
SAWALIISV [42_neoB]	Yes	high	Yes	Yes	Yes
SLIAYTMSV [40_neoA]	Yes	medium		No	
SMWALIISV [42_wt]	Yes	high	Yes	Yes	Yes
VLFLHVTYV [48_neoA]	Yes	high	No	No	Yes
VLMAPISAV [46_neoA]	Yes	medium		No	
VLPTKLNDV [47_neoA]	No	medium	Yes	Yes	Yes
VSFLHVTYV [48_neoB]	Yes	high	Yes	Yes	Yes
VVFLHVTYV [48_wt]	Yes	high	No	No	Yes
WLMWLIINL [49_wt]	No	high		No	
YLMADLVYT [55_neoB]	Yes	medium		No	
YLNSTNVTV [51_neoA]	Yes	high		Yes	
YLYALVYFV [54_neoA]	Yes	high		Yes	
l_neoA (ALNTLVKQV)	Yes	high	Yes	Yes	Yes
